{
  "source": "paper PMC9818021",
  "about": "“Targets, Mechanisms and Cytotoxicity of Half-Sandwich Ir(III) Complexes Are Modulated by Structural Modifications on the Benzazole Ancillary Ligand” (Cancers, 2022)",
  "key": {"A549 cells [1]": {"test_system": "A549 cells", "assay": "GSH/GSSG-Glo assay", "type": "cell-based, human", "settings": "1 h", "description": "DNA damage was measured using EpiQuik 8-OHdG DNA Damage Quantification Direct Kit (colorimetric) (Fischer, Waltham, MA, USA, P600396); The mitochondrial cytochrome C release was evaluated using the “Millipore’s FlowCellect Cytochrome C Kit (Millipore, FCCH100110)”. Lactate dehydrogenase activity release was measured in the culture medium using Cytotoxicity Detection Kit (Roche Diagnostic, Barcelona, Spain, 11 644 793 001). Protein synthesis was determined using Click-iT Plus O-propargyl-puromycin (OPP) Protein Synthesis Assay Kit (Invitrogen™, Waltham, MA, USA). Measurement of GSH/GSSG was determined with GSH/GSSG-Glo Assay (Promega, V6611). Measurements of OCR and ECAR with Seahorse XFp (Agilent Technologies) were determined using the XFp Cell Mito Stress Test Kit (103010-100) and XFp Glycolysis Stress Test Kit (103017-100). ATP measurement was determined with Cell Titer-Glo Luminescent Cell Viability Assay (Promega, Madison, WI, USA, G7570). Determination of DNA damage using phosphorylated H2AX measurement were performed as previously described. Cardiolipin oxidation using the fluorophore Nonyl Acridine Orange (NAO, Thermo Scientific, A1372) was performed as described. Cell viability was determined by Hoechst inclusion and Propidium iodide (PI) exclusion by standard protocols. TEM analysis were performed as described. […]"}, "A549 cells [2]": {"test_system": "A549 cells", "assay": "MTT viability with NAC pre-incubation", "type": "cell-based, human", "settings": "NAC 10 mM 2 h pre-incubation, then 24 h", "description": "Cytotoxicity. MTT Assay and IC50 estimation. The cytotoxicity of 1[C,NH-Cl], 2[C,NMe-Cl], 3[N,NH-Cl]Cl, 4[N,NMe-Cl]Cl, 5[CNH2,NH-Cl]Cl, 6[CNH2,S-Cl]Cl, 7[CO,NH-Cl] and 8[CO,S-Cl] in A2780, A2780cis, SW480 and A549 carcinoma cells was evaluated by the MTT colorimetric assay. Cells were seeded in 96-well plates at 5000 cells per well and incubated at 37 °C, 5% CO2. After 24 h, the medium was removed and replaced with fresh medium with different concentrations of the compounds under study, and they were incubated for 48 h. Final DMSO concentration was kept below 0.7% in wells. For a negative control, one sequence of cells was left untreated and for vehicle control, cells treated with DMSO were included. For cell viability experiments preincubating with NAC (N-Acetyl-L-Cysteine), the cells were pre-treated with NAC, 10 mM for 2 h before the incubation with complex 1[C,NH-Cl] for 24 h. Then, the medium was removed from the wells, and 100 µL MTT (5 mg/mL) was added. […] Cell growth inhibition was detected by measuring the absorbance of each well at 595 nm using a BioTek Cytation5 microplate reader. […] The percentage of survival cells was calculated using absorbance measurements compared with control and the IC50 estimation using Graph Pad Prism version 6.01."}, "[3]": {"test_system": "A549-luc orthotopic lung tumor in athymic nude mice", "assay": "Orthotopic lung cancer model (A549-luc)", "type": "in vivo, mouse", "description": "Orthotopic lung cancer model. Athymic nude mice were used. The model was developed following the protocol previously described. On day 20, treatment with the metal complex was started, and 4 doses were given every other day. Tumor growth was measured in vivo by luminescence (IVIS® Spectrum) on the days that the complexes were not administered, ending the experiment on day 37 with the sacrifice of the animal and the removal of organs. Organ indicators of metastases, lungs, and mediastinal lymph nodes were processed as previously described. Histological analyzes were performed as described."}, "A549-gal cells": {"test_system": "A549-gal cells", "assay": "Seahorse XFp Glycolysis Stress Test (ECAR)", "type": "cell-based, human", "settings": "16 µM", "description": "Cell culture. Epithelial ovarian carcinoma cells (A2780) that acquired resistance to cisplatin epithelial ovarian carcinoma cells (A2780cis), colon adenocarcinoma cells (SW480) and epithelial lung adenocarcinoma cells (A549) were provided by Sigma Aldrich. A549 and SW480 cells were grown in Dulbecco′s Modified Eagle′s Medium (DMEM), supplemented with 10% Fetal Bovine Serum (FBS) and 1% penicillin, streptomycin and 1% glutamine for A549 and 1% amphotericin B for SW480. The A2780 and A2780cis were grown in RPMI 1640 supplemented with 10% Fetal Bovine Serum (FBS), 1% glutamine and 1% penicillin, streptomycin and amphotericin B. All cells were incubated in a humidified incubator at 37 °C under a 5% CO2 atmosphere and grown in 100 mm culture dishes to approximately 70–80% confluence. For subculturing, cells were detached with Trypsin-EDTA (Sigma). A549-gal were derived from A549 cultured in glucose-free medium supplemented with 10 mM galactose (Sigma) for at least 10 passes.\nDNA damage was measured using EpiQuik 8-OHdG DNA Damage Quantification Direct Kit (colorimetric) (Fischer, Waltham, MA, USA, P600396); The mitochondrial cytochrome C release was evaluated using the “Millipore’s FlowCellect Cytochrome C Kit (Millipore, FCCH100110)”. Lactate dehydrogenase activity release was measured in the culture medium using Cytotoxicity Detection Kit (Roche Diagnostic, Barcelona, Spain, 11 644 793 001). Protein synthesis was determined using Click-iT Plus O-propargyl-puromycin (OPP) Protein Synthesis Assay Kit (Invitrogen™, Waltham, MA, USA). Measurement of GSH/GSSG was determined with GSH/GSSG-Glo Assay (Promega, V6611). Measurements of OCR and ECAR with Seahorse XFp (Agilent Technologies) were determined using the XFp Cell Mito Stress Test Kit (103010-100) and XFp Glycolysis Stress Test Kit (103017-100). ATP measurement was determined with Cell Titer-Glo Luminescent Cell Viability Assay (Promega, Madison, WI, USA, G7570). Determination of DNA damage using phosphorylated H2AX measurement were performed as previously described. Cardiolipin oxidation using the fluorophore Nonyl Acridine Orange (NAO, Thermo Scientific, A1372) was performed as described. Cell viability was determined by Hoechst inclusion and Propidium iodide (PI) exclusion by standard protocols. TEM analysis were performed as described. Cell cycle analysis by flow cytometry and microarrays analysis were performed as described. Arrays data have been deposited in the ArrayExpress database at EMBL-EBI (www.ebi.ac.uk/arrayexpress) under accession number E-MTAB-860 (10 November 2022)"}, "caspases 3/7": {"test_system": "caspases 3/7", "assay": "Caspase 3/7 detection (CellEvent)", "type": "cell-based, human", "settings": "A549, 16 µM, up to 24 h", "description": "Specific assays with 1[C,NH] complex were performed according to manufacturer’s instructions using the following reagents from Molecular Probes (Thermo Fisher Scientific): Measurements of ROS: Dihydroethidium (DHE, D11347) and 2′, 7′-dichlorodihydrofluorescein diacetate (H2DCFDA, D399); detection of caspases 3/7: CellEvent Caspase-3/7 Green Detection Reagent (C10423); Cell viability: Live/Dead Cell Imaging Kit (R37601); Analysis of cytosolic calcium concentration: Fluo3/AM (F23915); Analysis of MMP: Tetramethylrhodamine methyl ester perchlorate (TMRM, T668). RT-qPCR’s assays were performed with the following primers/probes from Thermo Fisher Scientific: DCP1A (Hs00218198-m1), FOSB (Hs00171851-m1), EGR1(Hs0015928-m1), ATF3 (Hs00231069-m1), DDIT3 (Hs00358796-g1), PP1R15A (Hs00169585-m1), CHAC1(Hs00225520-m1), MIR9-1 (Hs04231512-s1), ATP1B2 (Hs00155922-m1), BBC3 (Hs00248075-m1), BCL2L11 (Hs00798019-s1), PMAIP1 (Hs00560402-m1), SKP2 (Hs01021864-m1) and HIST1H1B (Hs00271207-s1). RT-qPCR experiments were performed as described."}, "[4]": {"settings": "4 doses (0.9 mg/kg) on alternate days"}},
  "data": [
    {"smiles": "Cc1c(C)c(C)[c-](C)c1C.[Cl][Ir]1[c]2ccccc2-c2[nH]c3ccccc3[n+]21", "note": "[1[C,NH], [(η^5-Cp*)IrCl(κ^2-N,C-pbim)]]", "values": [
      {"measurement": "GSH/GSSG ratio", "setting": "A549 cells [1]", "value": "decreased the GSH/GSSG ratio"},
      {"measurement": "Rescue of cytotoxicity by NAC", "setting": "A549 cells [2]", "value": "partial rescue"},
      {"measurement": "Body weight of treated mice", "setting": "[3]; [4]", "value": "did not lose weight"},
      {"measurement": "Necropsy findings in non-tumor tissues", "setting": "[3]; [4]", "value": "no pathological evidence of relevance was detected in non-tumor tissues"},
      {"measurement": "Luciferase activity in mediastinal nodes", "setting": "[3]; 4 doses (0.9 mg/kg), day 37", "value": "lack of effect"},
      {"measurement": "Luciferase activity in the primary tumor (lung extracts)", "setting": "[3]; 4 doses (0.9 mg/kg), day 37", "value": "significantly reduced luciferase activity in the primary tumor"},
      {"measurement": "Size of tumor foci (anti-CK7 immunohistochemistry)", "setting": "[3]; 4 doses (0.9 mg/kg), day 37", "value": "strong effect on reducing the size of tumor foci"},
      {"measurement": "Acute Response, ECAR, Mean", "setting": "A549-gal cells", "value": 4.17, "unit": "mpH/min"},
      {"measurement": "Glycolysis, ECAR, Mean", "setting": "A549-gal cells", "value": 44.81, "unit": "mpH/min"},
      {"measurement": "Glycolytic Capacity, ECAR, Mean", "setting": "A549-gal cells", "value": 43.97, "unit": "mpH/min"},
      {"measurement": "Glycolytic Reserve %, Mean", "setting": "A549-gal cells", "value": 98.26, "unit": "%"},
      {"measurement": "Glycolytic Reserve, ECAR, Mean", "setting": "A549-gal cells", "value": 2.48, "unit": "mpH/min"},
      {"measurement": "Non-Glycolytic Acidification, ECAR, Mean", "setting": "A549-gal cells", "value": 9.64, "unit": "mpH/min"},
      {"measurement": "Caspase 3/7 activity", "setting": "caspases 3/7", "value": "induced caspase 3/7 activation"}
    ]}
  ]
}
